# Source: patent US8809368B2, “Compounds affecting gap junction activity” (Kansas State University Research Foundation, priority 2006, dated 2014)
# “Also recorded” adds a separate entry of the source.
# Legend:
# [1] = tested on: SW620 colon cancer cells; assay: Colony growth of SW620 colon cancer cells; assay type: cell-based
# Experimental: (§1) However, PQ3 has an opposite effect on mammary cancer cell lines. […] A summary of PQ-mediated GJIC activity and colony growth in breast and colon cancer cells is presented in Tables 1, 2, and 3, as well as FIGS. 10-13. In FIG. 10, SW620 cells were dosed for 24 hours with PQ1 at 100, 200, 300, and 500 nM. The gap junction activity was measured as a percent of control, as previously described. It was seen that all concentrations on PQ1 increased the gap junction activity in SW620 colon cancer cells as compared to the control. In FIG. 11, the effect of PQ1 on the expression of PKCγ was studied at concentrations of 100, 200, 300 and 500 nM PQ1 for 24 hours. It is seen in FIG. 11 that PQ1 has no effect on the expression of PKCγ at the levels tested. In FIGS. 12 and 13, the effect of PQ1 on the colony growth of SW620 colon cancer cells was measured with 1-100 nM PQ1 (FIG. 12) and 10 uM PQ1 (FIG. 13).
# Colony Growth Assay: T47D human breast cancer cells were treated with PQ1. Base agar plates were prepared containing 0.8% agar and 0.4% agar in Ham's F12. Cells (5×10^4 cells/33 mm2 well) were suspended in 100 μl of Ham's F12 with 0.4% agar and plated. These plates were maintained at 37° C. for 7 days and examined for the presence of colonies. Individual colonies of 40 um or greater were examined.
# [2] = tested on: T47D cells; assay: Gap junction activity (GJIC), flow cytometry of dye coupling, T47D cells; assay type: cell-based, human
# Experimental: FIG. 4(A) MDA-MB-453 and (B) T47D cells were treated with low (500 nM) and high (10 μM) concentrations of PQs for 24 hours. Monolayers of acceptor cell population were grown on 25-cm flasks in the presence of Vibrant DiD. Vybrant DiD in acceptor cells is not able to pass through the gap junctions because of its hydrophobic property. Single cell suspensions of donor treated cells were prepared, labeled with 0.05 μg/ml calcein-AM, incubated at 37 C for 5 minutes. Quantification of dye coupling between the donor and acceptor cells was assessed by dual-excitation flow cytometry. […] Cells treated with 10 μM PQ3 have approximately 40-50% decrease in gap junction activity compared control or DMSO.
# [3] = tested on: HIF1α; assay: CoCl2 chemical hypoxia in R28 cells, HIF1α stabilization in nuclear extracts; assay type: cell-based, rat; settings: PQ1 alone, up to 24 h
# Experimental: (A) About 70% confluent retinal R28 cells were treated with 100, 200 and 500 μM CoCl2 for 24 h with or without the pre-treatment of PQ1 (10 μM, 40 min) in a cell culture chamber (5% CO2, room air, 37° C.). Caspase-3 activation was determined by Western blotting in whole cell homogenates (WCH). (B) HIF1α stabilization was measured in the nuclear extracts (NE) after treatment with 500 μM CoCl2 at different time intervals with or without the pretreatment of PQ1. […] Levels of Cx43 and phosphoCx43-Ser368 are measured in WCH. β-Actin is used as a loading control.
# Approximately 70% confluent retinal R28 cells were pre-incubated with PQ1 (10 μM, 40 min), followed by CoCl2 treatments at 100, 200 and 500 μM for different time periods in a cell culture chamber (5% CO2, room air, 37° C.). Hypoxia induction was confirmed by testing the hypoxia-inducible factor 1-α (HIF1α) protein expression levels in nuclear extracts by Western blotting.
# Nuclear extracts. […] The eluted nuclear proteins in the supernatant were collected and HIF1a protein levels were measured by Western blotting. […]
# [4] = tested on: PKCγ; assay: Expression of PKCγ; assay type: cell-based; settings: 100, 200, 300 and 500 nM, 24 hours
# Experimental: as §1
structure (smiles),measurement,setting,value
"COc1cc(NCCCN)c2nccc(C)c2c1Oc1cccc(C(F)(F)F)c1.O=C(O)CCC(=O)O [PQ1, 6-Methoxy-8-[(3-aminopropyl)amino]-4-methyl-5-(3-trifluoromethylphenyloxy) quinoline succinic acid]",colony growth,[1]; 10 uM,completely inhibits
same,colony growth,[1]; 1-100 nM,no effect
same,increase in GJIC,"[2]; FIG. 4, 24 hours",20-50%
same,effect on gap junction intercellular communication,"[2]; Table 1, 500 nM",Increase
same,HIF1α stabilization,[3],did not cause activation or stabilization; also recorded: did not have any effect
same,expression of PKCγ,[4],no effect
